The results in this text go back to US7314959B2, “Amino thiol compounds and compositions for use in conjunction with cancer therapy” (Wisconsin Alumni Research Foundation, priority 2003, dated 2008).

In assay [1] the test system is radiation-induced dermatitis on backs of rats. The assay is described as follows: Radiation-induced dermatitis in rat skin model. Type of assay: in vivo. As to the method:
To determine efficacy of chemoprotective polyamines in preventing radiation-induced dermatitis, adult rats were topically treated with the compounds before and after radiation treatment. Rats were exposed to medically relevant levels of radiation that could induce clinical radiation dermatitis. Sprague Dawley rats (Harlan Spraque Dawley) at 4-6 weeks-old were anesthetized with sodium pentobarbital at 40 mg/kg body weight (Sigma, St. Louis, Mo.) prior to radiation exposure. A defined area (1.5×2 cm) on the backs of rats was irradiated using a Mark I, Model 30, Cs 137 irradiator (J. L. Sheppard & Associates). Before topical drug treatment or irradiation, the backs of the rats were clipped using an Oster clipper at the closest setting. The rest of the body was protected from radiation exposure using a lead shield (2.5 cm thick). A dose response study was initially performed to reproduce relevant dermatitis that matched the Grade (I-IV) scale used to score the severity of radiation-induced dermatitis in humans. The severity of the dermatitis was scored 12-13 days post-irradiation at the peak of the dermal inflammation. […] Radiation dermatitis of Grade II-III was considered most clinically relevant, so a radiation dose of 8.7 Gy was typically used in the rats. The clipped back region on the rats was treated topically with aminothiol in delivery vehicle four times in the two hours immediately preceding irradiation (at −2 hr, −1 hr, −30 min, and −10 min; irradiation was at 0 min
The polyamines or amino thiols were prepared in a delivery vehicle, consisting of ethanol:propylene glycol:water, ranging from 0:95:5 to 50:30:20 depending upon the solubility characteristics of the topical molecule, and the degree of dermal penetration desired. A vehicle composed of an emulsion formed by sonication of ‘nonionic liposomes’ and isopropyl myristate was also used (Jayaraman, S. et al., J. Pharm. Sci. 85:1082-1084, 1996). In a commonly used protocol, 220 μl of topical drug/vehicle was applied to an area ˜2 cm×3 cm on the back in the 2 hr just prior to irradiation. Rats treated with only the delivery vehicle served as controls. Twelve to thirteen days post-radiation, the rats were evaluated for dermatitis within the irradiated area. In early studies, a modified scoring scale described by Masuda K. et al., Int. J. Radiation Oncol. Biol. Phys: 12, 1645 (1986) was used, and in later studies, including those described here, a simplified scoring system was used in which the percentage of the irradiated, rectangular field covered with scrab material was estimated between 0 and 100% to provide scores on a scale between 0 and 100.
This example relates to the use of a rat skin model to evaluate the efficacy of two amino thiol compounds in preventing radiation-induced dermatitis. To test whether topically-applied aminothiols could prevent the radiodermatitis caused by external beam radiotherapy, the rodent model described in Example 3 was slightly modified. Briefly, the radiodermatitis model involved: • i) shaving the backs of 6-7 week old rats or mice; • ii) applying four topical doses of aminothiol in a delivery vehicle composed of ethanol:propylene glycol (PG):water in the 2 hr prior to irradiation; • iii) irradiating a small, 3 cm^2 (1.5×2 cm) area on the animal's back (through a window in a lead plate) with 8.7 Gy of γ radiation from a Cs^137 source; and • iv) scoring the severity of the dermatitis 12-13 days later, at the peak of the inflammatory skin reaction. Radiodermatitis severity was scored by estimating the percentage of the irradiated field that was covered by scrab material.
Methods: Treatments were applied as described in Example 6.

Assay [2] deals with supercoiled pUC19 plasmid. The experiment in a line: Hydroxyl radical scavenging, plasmid DNA protection. It is filed as biochemical. The note with it: 0-70 mM, pH 6.5; even the lowest concentration tested; UV 2.5 min. The method, then: Method: 0.3 μg pUC19 plasmid was added to a 16 μl incubation containing Tris-EDTA buffer, then either PrC-210 (0-70 mM, pH 6.5) or buffer were added to the incubation. The polypropylene microtubes were then sealed and irradiated for 2.5 min at a distance of 80 cm from a UV lamp. Samples were then applied to 1% agarose gels and electrophoresed using methods known in the art.

Bounds are passed on as bounds.

For `CNCC(CS)CNC` [PrC-210, 3-methylamino-2-methylaminomethyl-propane-1-thiol], the “dose for complete protection in 0:95:5 vehicle relative to 50:30:20 vehicle” value in assay [1] (0:95:5 versus 50:30:20 ethanol:PG:water) was “about 10 times”. Further, the “Dermatitis Score (% of irradiated field free of scab material)” value is recorded as less than 50% in assay [1] (370 mM, vehicle 0:95:5, Experiment 440-443); 100 ± 0% in assay [1] (370 mM, vehicle 50:30:20, Experiment 574-577); 98 ± 3% in assay [1] (370 mM, vehicle 50:30:20, Experiment 643-646); 68% in assay [1] (740 mM, vehicle 0:95:5 ethanol:prop. glycol:water, Experiment 440-443); 96 ± 3% in assay [1] (740 mM, vehicle 50:30:20, Experiment 626-629); 96 ± 4% in assay [1] (740 mM, vehicle 50:30:20, Experiment 643-646). The “Dermatitis Score (% of irradiated field free of scab material)” value in assay [1] (900 mM PrC-210, vehicle 0:95:5, cage 440, 8.7 Gy) stood at 68 ± 10%; in assay [1] (1200 mM PrC-210, vehicle 0:95:5, cage 441), 95 ± 5%. Also, the “concentration conferring complete protection against radiation-induced dermatitis” value in assay [1] (95:5 PG:water vehicle) was 1200 to 1500 mM; in assay [1] (vehicle 50:30:20 ethanol:PG:water, total applied volume 105 ul) it was 370 mM. The “concentration of topical aminothiol alone conferring complete protection against radiodermatitis” value in assay [1] (aminothiol alone, without epinephrine, 8.7 Gy) is reported as approximately 1200 mM. Also, the “dose required for complete protection (100% Clear Skin) against radiodermatitis” value in assay [1] (vehicle 0:95:5 ethanol:PG:water) is given as approximately 24 mg/cm skin. For the same compound, in assay [1] (vehicle 50:30:20 ethanol:PG:water), the “applied dose conferring complete protection against radiation-induced dermatitis” value is 2.8 mg/cm^2 skin. In addition, the “protection of supercoiled DNA from OH radical damage” value in assay [2] was “completely prevented damage to supercoiled DNA”.
